Test system: 695427-040-R-J1-PDC complex spheroid viability
Test: Anticancer human tumor 695427-040-R-J1-PDC patient-derived colon adenocarcinoma cell line growth inhibition [RAS]
Settings: for IC50: curve of first compound; for viability, T/C: stronger effect = lower value; active = viability on the fitted dose curve at most 10% of control; inactive = the rest
Source text: RAS pathway inhibitors in Combinations in Complex Spheroids
A high-throughput screen of multi-cell type tumor spheroids was designed to identify active combinations of RAS pathway inhibitors and targeted small molecules. Complex spheroids include a stromal component modeled by human endothelial cells (HUVEC) and fibroblasts modeled by human mesenchymal stem cells (MSCs). The concentration ranges selected for each drug and investigational agent were based upon clinically achievable concentrations if the clinical Cmax of the agent was known.
Compounds. The drugs and investigational agents: abemaciclib (NSC768073), cobimetinib (NSC768068), divarasib (GDC6063, NSC841802), docetaxel (NSC628503), GDC-1971 (RLY-1971, NSC841576), gemcitabine (NSC613327), inavolisib (NSC800729), ipatasertib (NSC767898), KB-0742 (NSC834161), MRTX-1133 (NSC836407), osimertinib (NSC779217), RMC-4630 (NSC839698), RMC-6236 (NSC851965), RMC-6291 (NSC852671), Ro-3306 (NSC812927), sapanisertib (NSC764658), SN-38 (NSC673596), staurosporine (NSC755774), SY5609 (NSC837396), and tovorafenib (DAY101, NSC766906), were obtained from the National Cancer Institute (NCI) Developmental Therapeutics Program Chemical Repository. The FDA-approved anticancer drug set is available from the NCI Developmental Therapeutics Program. […] The stock solutions were prepared in dimethyl sulfoxide (DMSO, Sigma-Aldrich, St. Louis, MO, cat. D2650) at 800-fold the tested concentration and stored at -70 degrees C prior to their use. All drugs and investigational agents were tested over a range starting from a high concentration at or near the clinical Cmax and decreasing in half-log increments. If the clinical Cmax for an agent had not been determined, the highest concentration tested was 10 microM.
Cell Culture. All cells were maintained in an incubator at 37 degrees C and 5% CO2 with 95% humidity. The PDC lines were cultured according to standard operating procedures established by the NCI PDMR. All PDCs were thawed and cultured in Matrigel-coated flasks prepared with a working solution of 1X Ham's F-12 nutrient mix, without supplementation (Invitrogen, Waltham, MA, cat. 11765054), 100 U/mL penicillin-streptomycin (Invitrogen, cat. 15140122), and 2.5% Matrigel (Corning Inc., Corning, NY, cat. 354248) for the first three passages. The 362531-283-R-J2-PDC and 782815-120-R-J1-PDC lines were cultured in 6C/Colon 1B media, which includes advanced DMEM/F-12 (Thermo Fisher Scientific, cat. 12634028), 10 mM HEPES (Thermo Fisher Scientific, cat. 15630080), 1X GlutaMAX supplement (Thermo Fisher Scientific, cat. 35050061), 0.1 mg/mL primocin (InvivoGen, San Diego, CA, cat. ant-pm-2), 10% defined fetal bovine serum, heat inactivated (HyClone Laboratories Inc., Logan, UT, cat. SH30070.03HI), 50% L-WRN conditioned media (ATCC, cat. CRL-3276), 1.25 mM N-Acetyl-L-cysteine (Sigma-Aldrich, cat. A9165), 10 mM nicotinamide (Sigma-Aldrich, cat. N0636), 1X B-27 supplement (Thermo Fisher Scientific, cat. 17504044), 1X N-2 supplement (Thermo Fisher Scientific, cat. 17502048), 50 ng/mL human EGF (Thermo Fisher Scientific, cat. PHG0311), and 10 microM Y-27632 dihydrochloride (Tocris Bioscience, cat. 1254). The K12877-001-R-J1-PDC line was cultured in 6I media, which includes all 6C/Colon 1B media plus 10 ng/mL human FGF-10 (PeproTech, cat. 100-26), 1 ng/mL human FGF-2 (PeproTech, cat. 100-18B), 1 µM prostaglandin E2 (Tocris Bioscience, cat. 2296), […] hydrocortisone (Sigma-Aldrich, cat. H4001), and […] bovine insulin (Sigma-Aldrich, cat. I6634). The K86415-001-R-J1-PDC line was cultured in 6D media, which includes all 6C/Colon 1B media components minus the L-WRN conditioned media. The 485176-168-R4-J1-PDC was cultured in PANC media, which includes all 6C/Colon 1B media plus 100 ng/mL human FGF-10 (PeproTech, cat. 100-26), 500 nM SB-431542 (Selleckchem, cat. S1067), and 10 nM gastrin (Tocris Bioscience, cat. 3006). […]
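Also: viability read after seven days of drug exposure.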

CC(C)n1nc(-c2ccc3oc(N)nc3c2)c2c(N)ncnc21 + CCn1c(-c2cc(N3CCN(C)CC3)cnc2C(C)OC)c2c3cc(ccc31)-c1csc(n1)CC(NC(=O)C1CC1C)C(=O)N1CCCC(N1)C(=O)OCC(C)(C)C2
> 100 nM: IC50 (second compound 0.003 µM)
< 0.316 nM: IC50 (second compound 0.0949 µM) | IC50 (second compound 0.3 µM)
4.03 nM: IC50 (second compound 0.03 µM)
34.2 nM: IC50 (second compound 0.00949 µM)
71.9 nM: IC50 (second compound 0.000949 µM)
inactive: viability, T/C (second compound 0.000949 µM, first compound 0.000316 µM) 100% | viability, T/C (second compound 0.000949 µM, first compound 0.001 µM) 86.4% | viability, T/C (second compound 0.000949 µM, first compound 0.00316 µM) 80.3% | viability, T/C (second compound 0.000949 µM, first compound 0.01 µM) 81.2% | viability, T/C (second compound 0.000949 µM, first compound 0.0316 µM) 68.6% | viability, T/C (second compound 0.000949 µM, first compound 0.1 µM) 42% | viability, T/C (second compound 0.003 µM, first compound 0.000316 µM) 98.5% | viability, T/C (second compound 0.003 µM, first compound 0.001 µM) 84.8% | viability, T/C (second compound 0.003 µM, first compound 0.00316 µM) 71.8% | viability, T/C (second compound 0.003 µM, first compound 0.01 µM) 68.1% | viability, T/C (second compound 0.003 µM, first compound 0.0316 µM) 66.5% | viability, T/C (second compound 0.003 µM, first compound 0.1 µM) 51.1% | viability, T/C (second compound 0.00949 µM, first compound 0.000316 µM) 93.3% | viability, T/C (second compound 0.00949 µM, first compound 0.001 µM) 68.5% | viability, T/C (second compound 0.00949 µM, first compound 0.00316 µM) 70% | viability, T/C (second compound 0.00949 µM, first compound 0.01 µM) 59.1% | viability, T/C (second compound 0.00949 µM, first compound 0.0316 µM) 46.4% | viability, T/C (second compound 0.00949 µM, first compound 0.1 µM) 46.8% | viability, T/C (second compound 0.03 µM, first compound 0.000316 µM) 74.3% | viability, T/C (second compound 0.03 µM, first compound 0.001 µM) 45.1% | viability, T/C (second compound 0.03 µM, first compound 0.00316 µM) 55.8% | viability, T/C (second compound 0.03 µM, first compound 0.01 µM) 48.6% | viability, T/C (second compound 0.03 µM, first compound 0.0316 µM) 39.2% | viability, T/C (second compound 0.03 µM, first compound 0.1 µM) 28.7% | viability, T/C (second compound 0.0949 µM, first compound 0.000316 µM) 47.6% | viability, T/C (second compound 0.0949 µM, first compound 0.001 µM) 38.6% | viability, T/C (second compound 0.0949 µM, first compound 0.00316 µM) 35.4% | viability, T/C (second compound 0.0949 µM, first compound 0.01 µM) 32.8% | viability, T/C (second compound 0.0949 µM, first compound 0.0316 µM) 30% | viability, T/C (second compound 0.0949 µM, first compound 0.1 µM) 21.3% | viability, T/C (second compound 0.3 µM, first compound 0.000316 µM) 41% | viability, T/C (second compound 0.3 µM, first compound 0.001 µM) 34.8% | viability, T/C (second compound 0.3 µM, first compound 0.00316 µM) 27.3% | viability, T/C (second compound 0.3 µM, first compound 0.01 µM) 28.2% | viability, T/C (second compound 0.3 µM, first compound 0.0316 µM) 22.6% | viability, T/C (second compound 0.3 µM, first compound 0.1 µM) 15.7%

CC(=O)OC12COC1CC(O)C1(C)C(=O)C(O)C3=C(C)C(OC(=O)C(O)C(NC(=O)OC(C)(C)C)c4ccccc4)CC(O)(C(OC(=O)c4ccccc4)C21)C3(C)C (centres undefined) + C=CC(=O)N1CCN(c2nc(OCC3CCCN3C)nc3c(F)c(-c4nc(N)cc(C)c4C(F)(F)F)c(Cl)cc23)C(C)C1
> 10000 nM: IC50 (second compound 0.00316 µM) | IC50 (second compound 0.01 µM) | IC50 (second compound 0.0316 µM) | IC50 (second compound 0.1 µM) | IC50 (second compound 0.316 µM) | IC50 (second compound 1 µM)
inactive: viability, T/C (second compound 0.00316 µM, first compound 0.0316 µM) 67.3% | viability, T/C (second compound 0.00316 µM, first compound 0.1 µM) 69% | viability, T/C (second compound 0.00316 µM, first compound 0.316 µM) 74.2% | viability, T/C (second compound 0.00316 µM, first compound 1 µM) 78.9% | viability, T/C (second compound 0.00316 µM, first compound 3.16 µM) 91.5% | viability, T/C (second compound 0.00316 µM, first compound 10 µM) 98% | viability, T/C (second compound 0.01 µM, first compound 0.0316 µM) 71.8% | viability, T/C (second compound 0.01 µM, first compound 0.1 µM) 66.8% | viability, T/C (second compound 0.01 µM, first compound 0.316 µM) 71% | viability, T/C (second compound 0.01 µM, first compound 1 µM) 79.7% | viability, T/C (second compound 0.01 µM, first compound 3.16 µM) 93% | viability, T/C (second compound 0.01 µM, first compound 10 µM) 89.3% | viability, T/C (second compound 0.0316 µM, first compound 0.0316 µM) 71% | viability, T/C (second compound 0.0316 µM, first compound 0.1 µM) 72.8% | viability, T/C (second compound 0.0316 µM, first compound 0.316 µM) 77.2% | viability, T/C (second compound 0.0316 µM, first compound 1 µM) 78% | viability, T/C (second compound 0.0316 µM, first compound 3.16 µM) 83.7% | viability, T/C (second compound 0.0316 µM, first compound 10 µM) 89.5% | viability, T/C (second compound 0.1 µM, first compound 0.0316 µM) 70.6% | viability, T/C (second compound 0.1 µM, first compound 0.1 µM) 71.3% | viability, T/C (second compound 0.1 µM, first compound 0.316 µM) 74% | viability, T/C (second compound 0.1 µM, first compound 1 µM) 76.2% | viability, T/C (second compound 0.1 µM, first compound 3.16 µM) 93.6% | viability, T/C (second compound 0.1 µM, first compound 10 µM) 96.9% | viability, T/C (second compound 0.316 µM, first compound 0.0316 µM) 75.2% | viability, T/C (second compound 0.316 µM, first compound 0.1 µM) 73.6% | viability, T/C (second compound 0.316 µM, first compound 0.316 µM) 83.8% | viability, T/C (second compound 0.316 µM, first compound 1 µM) 75% | viability, T/C (second compound 0.316 µM, first compound 3.16 µM) 93.1% | viability, T/C (second compound 0.316 µM, first compound 10 µM) 95.7% | viability, T/C (second compound 1 µM, first compound 0.0316 µM) 76.4% | viability, T/C (second compound 1 µM, first compound 0.1 µM) 68.5% | viability, T/C (second compound 1 µM, first compound 0.316 µM) 77.3% | viability, T/C (second compound 1 µM, first compound 1 µM) 83.4% | viability, T/C (second compound 1 µM, first compound 3.16 µM) 88.7% | viability, T/C (second compound 1 µM, first compound 10 µM) 91.8%

— PubChem BioAssay AID2060888 (Molecular Pharmacology Branch, DTP, NCI, 2025)
